ChEMBL document CHEMBL4346676, “Base promoted synthesis of novel indole-dithiocarbamate compounds as potential anti-inflammatory therapeutic agents for treatment of acute lung injury” (Eur J Med Chem, 2019)
Blank lines part the entries; values can stand above or below the molecule they belong to. The source made the active and inactive calls. No cut-off for these calls is given here.

How the values were obtained:
[1] = system: Peritoneal macrophage; experiment: Cytotoxicity against C57BL/6J mouse Primary peritoneal macrophages assessed as cell viability at 1 uM measured after 24 hrs by MTT assay; format: cell-based
[2] = system: Peritoneal macrophage; experiment: Antiinflammatory activity in C57BL/6J mouse Primary peritoneal macrophages assessed as suppression of LPS-stimulated TNF-alpha expression at 1 uM preincubated for 30 mins followed by LPS stimulation measured after 24 hrs by ELISA; format: functional, cell-based
[3] = system: Mus musculus; experiment: Antiinflammatory activity in LPS-induced C57BL/6 mouse model of acute lung injury assessed as reduction in TNF-alpha level in serum at 2.5 to 5 mg/kg, po pretreated for 3 days followed by LPS challenge measured after 6 hrs; format: functional, organism-based
[4] = system: Mus musculus; experiment: Antiinflammatory activity in LPS-induced C57BL/6 mouse model of acute lung injury assessed as reduction in total protein levels in BALF at 2.5 to 5 mg/kg, po pretreated for 3 days followed by LPS challenge measured after 6 hrs; format: functional, organism-based
[5] = system: Mus musculus; experiment: Antiinflammatory activity in LPS-induced C57BL/6 mouse model of acute lung injury assessed as reduction in IL-6 level in BALF at 2.5 to 5 mg/kg, po pretreated for 3 days followed by LPS challenge measured after 6 hrs; format: functional, organism-based
[6] = system: Peritoneal macrophage; experiment: Antiinflammatory activity in C57BL/6J mouse Primary peritoneal macrophages assessed as inhibition of LPS-stimulated TNF-alpha expression preincubated for 30 mins followed by LPS stimulation measured after 24 hrs by ELISA; format: functional, cell-based
[7] = system: Mus musculus; experiment: Antiinflammatory activity in po dosed C57BL/6 mouse model of acute lung injury assessed as reduction in LPS-stimulated ICAM1 mRNA expression pretreated for 3 days followed by LPS challenge measured after 6 hrs by SYBR green dye based RT-qPCR analysis; format: functional, organism-based
[8] = system: Mus musculus; experiment: Antiinflammatory activity in LPS-induced C57BL/6 mouse model of acute lung injury assessed as reduction in TNF-alpha mRNA expression at 2.5 to 5 mg/kg, po pretreated for 3 days followed by LPS challenge measured after 6 hrs by SYBR green dye based RT-qPCR analysis; format: functional, organism-based
[9] = system: Mus musculus; experiment: Antiinflammatory activity in LPS-induced C57BL/6 mouse model of acute lung injury assessed as reduction in IL-6 mRNA expression at 2.5 to 5 mg/kg, po pretreated for 3 days followed by LPS challenge measured after 6 hrs by SYBR green dye based RT-qPCR; format: functional, organism-based
[10] = system: Mus musculus; experiment: Antiinflammatory activity in LPS-induced C57BL/6 mouse model of acute lung injury assessed as inhibition of interstitial edema at 2.5 to 5 mg/kg, po pretreated for 3 days followed by LPS challenge measured after 6 hrs by hematoxylin and eosin staining based microscopic analysis; format: functional, organism-based
[11] = system: Mus musculus; experiment: Antiinflammatory activity in LPS-induced C57BL/6 mouse model of acute lung injury assessed as reduction in IL-1beta mRNA expression at 2.5 to 5 mg/kg, po pretreated for 3 days followed by LPS challenge measured after 6 hrs by SYBR green dye based RT-qPCR analysis; format: functional, organism-based
[12] = system: Mus musculus; experiment: Antiinflammatory activity in LPS-induced C57BL/6 mouse model of acute lung injury assessed as reduction in IL-6 level in serum at 2.5 to 5 mg/kg, po pretreated for 3 days followed by LPS challenge measured after 6 hrs; format: functional, organism-based
[13] = system: Mus musculus; experiment: Antiinflammatory activity in LPS-induced C57BL/6 mouse model of acute lung injury assessed as reduction in lung wet/dry ratio at 2.5 to 5 mg/kg, po pretreated for 3 days followed by LPS challenge measured after 6 hrs; format: functional, organism-based
[14] = system: Mus musculus; experiment: Antiinflammatory activity in LPS-induced C57BL/6 mouse model of acute lung injury assessed as inhibition of destruction of alveolar hemorrhage at 2.5 to 5 mg/kg, po pretreated for 3 days followed by LPS challenge measured after 6 hrs by hematoxylin and eosin staining based microscopic analysis; format: functional, organism-based
[15] = system: Mus musculus; experiment: Antiinflammatory activity in LPS-induced C57BL/6 mouse model of acute lung injury assessed as reduction in neutrophil count in BALF at 2.5 to 5 mg/kg, po pretreated for 3 days followed by LPS challenge measured after 6 hrs; format: functional, organism-based
[16] = system: Mus musculus; experiment: Antiinflammatory activity in LPS-induced C57BL/6 mouse model of acute lung injury assessed as reduction in TNF-alpha level in BALF at 2.5 to 5 mg/kg, po pretreated for 3 days followed by LPS challenge measured after 6 hrs; format: functional, organism-based
[17] = system: Mus musculus; experiment: Antiinflammatory activity in LPS-induced C57BL/6 mouse model of acute lung injury assessed as reduction in VCAM1 mRNA expression at 2.5 to 5 mg/kg, po pretreated for 3 days followed by LPS challenge measured after 6 hrs by SYBR green dye based RT-qPCR analysis; format: functional, organism-based
[18] = system: Peritoneal macrophage; experiment: Antiinflammatory activity in C57BL/6J mouse Primary peritoneal macrophages assessed as suppression of LPS-stimulated IL-6 expression at 1 uM preincubated for 30 mins followed by LPS stimulation measured after 24 hrs by ELISA; format: functional, cell-based
[19] = system: Mus musculus; experiment: Antiinflammatory activity in LPS-induced C57BL/6 mouse model of acute lung injury assessed as inhibition of destruction of alveolar structure at 2.5 to 5 mg/kg, po pretreated for 3 days followed by LPS challenge measured after 6 hrs by hematoxylin and eosin staining based microscopic analysis; format: functional, organism-based
[20] = system: Peritoneal macrophage; experiment: Antiinflammatory activity in C57BL/6J mouse Primary peritoneal macrophages assessed as inhibition of LPS-stimulated IL-6 expression preincubated for 30 mins followed by LPS stimulation measured after 24 hrs by ELISA; format: functional, cell-based
[21] = system: Mus musculus; experiment: Antiinflammatory activity in po dosed C57BL/6 mouse model of acute lung injury assessed as reduction in LPS-stimulated IL-1beta mRNA expression pretreated for 3 days followed by LPS challenge measured after 6 hrs by SYBR green dye based RT-qPCR; format: functional, organism-based
[22] = system: Mus musculus; experiment: Antiinflammatory activity in LPS-induced C57BL/6 mouse model of acute lung injury assessed as reduction in ICAM1 mRNA expression at 2.5 to 5 mg/kg, po pretreated for 3 days followed by LPS challenge measured after 6 hrs by SYBR green dye based RT-qPCR analysis; format: functional, organism-based
[23] = system: Mus musculus; experiment: Antiinflammatory activity in LPS-induced C57BL/6 mouse model of acute lung injury assessed as suppression of macrophage infiltration at 2.5 to 5 mg/kg, po pretreated for 3 days followed by LPS challenge measured after 6 hrs by F4/80/hematoxylin staining based microscopic analysis; format: functional, organism-based
[24] = system: Mus musculus; experiment: Antiinflammatory activity in LPS-induced C57BL/6 mouse model of acute lung injury assessed as inhibition of inflammatory cell infiltration at 2.5 to 5 mg/kg, po pretreated for 3 days followed by LPS challenge measured after 6 hrs by hematoxylin and eosin staining based microscopic analysis; format: functional, organism-based
[25] = system: Mus musculus; experiment: Antiinflammatory activity in po dosed C57BL/6 mouse model of acute lung injury assessed as reduction in LPS-stimulated TNF-alpha mRNA expression pretreated for 3 days followed by LPS challenge measured after 6 hrs by SYBR green dye based RT-qPCR; format: functional, organism-based
[26] = system: Mus musculus; experiment: Antiinflammatory activity in po dosed C57BL/6 mouse model of acute lung injury assessed as reduction in LPS-stimulated IL-6 mRNA expression pretreated for 3 days followed by LPS challenge measured after 6 hrs by SYBR green dye based RT-qPCR; format: functional, organism-based
[27] = system: Mus musculus; experiment: Antiinflammatory activity in LPS-induced C57BL/6 mouse model of acute lung injury assessed as inhibition of interalveolar septal thickening at 2.5 to 5 mg/kg, po pretreated for 3 days followed by LPS challenge measured after 6 hrs by hematoxylin and eosin staining based microscopic analysis; format: functional, organism-based
[28] = system: Mus musculus; experiment: Antiinflammatory activity in po dosed C57BL/6 mouse model of acute lung injury assessed as reduction in LPS-stimulated VCAM1 mRNA expression pretreated for 3 days followed by LPS challenge measured after 6 hrs by SYBR green dye based RT-qPCR analysis; format: functional, organism-based
[29] = system: Mus musculus; experiment: Antiinflammatory activity in LPS-induced C57BL/6 mouse model of acute lung injury assessed as reduction in total protein level in BALF at 2.5 to 5 mg/kg, po pretreated for 3 days followed by LPS challenge measured after 6 hrs; format: functional, organism-based

SMILES: CN(C)C(=S)Sn1ccc2ccccc21
- Activity [1]: Non-Toxic

SMILES: S=C(Sn1ccc2ccccc21)N1CCCCC1
- Activity [1]: Non-Toxic

SMILES: Cc1cc2ccccc2n1SC(=S)N(C)C
- Activity [1]: Non-Toxic

- IC50 [6]: 28.1 nM
- IC50 [20]: 14.6 nM
SMILES: Cc1cn(SC(=S)N(C)C)c2ccccc12
- inhibition [2]: Active
- Activity [3]: Active
- Activity [4]: Active
- Activity [5]: Active
- inhibition [6]: Dose-dependent effect
- inhibition [7]: Dose-dependent effect
- inhibition [8]: Active
- inhibition [9]: Active
- Activity [10]: Active
- inhibition [11]: Active
- Activity [12]: Active
- Activity [13]: Active
- Activity [14]: Active
- Activity [15]: Active
- Activity [16]: Active
- inhibition [17]: Active
- inhibition [18]: Active
- Activity [19]: Active
- inhibition [20]: Dose-dependent effect
- inhibition [21]: Dose-dependent effect
- inhibition [22]: Active
- Activity [23]: Active
- Activity [24]: Active
- inhibition [25]: Dose-dependent effect
- inhibition [26]: Dose-dependent effect
- Activity [27]: Active
- inhibition [28]: Dose-dependent effect
- Activity [29]: Active
- Activity [1]: Non-Toxic

SMILES: S=C(Sn1ccc2ccccc21)N1CCC(Cc2ccccc2)CC1
- Activity [1]: Non-Toxic

SMILES: COc1ccc2c(ccn2SC(=S)N(C)C)c1
- Activity [1]: Non-Toxic

SMILES: CN(C)C(=S)Sn1ccc2cc(Br)ccc21
- Activity [1]: Non-Toxic

SMILES: CN(C)C(=S)Sn1ccc2c(Br)cccc21
- Activity [1]: Non-Toxic

SMILES: CC1CCN(C(=S)Sn2ccc3ccccc32)CC1
- Activity [1]: Non-Toxic

SMILES: Cc1c(C)n(SC(=S)N(C)C)c2ccccc12
- Activity [1]: Non-Toxic

SMILES: CN(C)C(=S)Sn1ccc2cc(F)ccc21
- Activity [1]: Non-Toxic

SMILES: CCN(CC)C(=S)Sn1c(C)cc2ccccc21
- Activity [1]: Non-Toxic

SMILES: COC(=O)c1ccc2ccn(SC(=S)N(C)C)c2c1
- Activity [1]: Non-Toxic

SMILES: CN1CCN(C(=S)Sn2ccc3ccccc32)CC1
- Activity [1]: Non-Toxic
